Test results from patent US5140039A, “Aminomethyl-thiochroman compounds” (Abbott Laboratories, priority 1991, dated 1992).
Structures can show the parent of a compound that is named as a salt.

What was measured:
alpha-1-receptor = biological target: T1, alpha-1-receptor (Rattus norvegicus, UniProt P15823); test: radioligand binding, [3H]-prazosin, rat liver homogenates
T1 construct: rat liver homogenates; from tissue; host or cells: rat liver homogenate
T1 sequence (P15823 1-515): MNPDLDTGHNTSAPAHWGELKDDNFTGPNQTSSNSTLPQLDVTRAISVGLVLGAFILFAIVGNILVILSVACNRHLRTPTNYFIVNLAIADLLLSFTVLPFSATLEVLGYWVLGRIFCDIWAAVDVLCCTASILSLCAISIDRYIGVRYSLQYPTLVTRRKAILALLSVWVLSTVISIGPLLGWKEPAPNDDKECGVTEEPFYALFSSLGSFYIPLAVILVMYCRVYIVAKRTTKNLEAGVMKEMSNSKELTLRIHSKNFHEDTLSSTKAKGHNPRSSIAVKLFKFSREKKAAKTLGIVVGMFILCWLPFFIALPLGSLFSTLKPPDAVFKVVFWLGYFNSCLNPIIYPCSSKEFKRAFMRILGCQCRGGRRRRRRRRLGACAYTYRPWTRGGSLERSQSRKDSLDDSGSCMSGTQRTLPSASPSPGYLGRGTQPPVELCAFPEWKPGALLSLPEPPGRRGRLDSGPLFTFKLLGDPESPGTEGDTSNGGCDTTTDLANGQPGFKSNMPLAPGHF
Experimental: (§1) The compounds were assessed for alpha-adrenergic receptor subtype selectivity by use of radioligand binding techniques as described previously (DeBernardis et.al. J. Med. Chem. 28 1398 (1985)). Affinity for the alpha-1-receptor was assessed using rat liver homogenates and the radioligand [^3 H]-prazosin; whereas for the alpha-2-receptor, rat cerebral cortices and the radioligand [^3 H]-rauwolscine were utilized. Results obtained from the binding studies are shown in Table 1 for a representative sample of compounds disclosed herein.

alpha-2-receptor = test: radioligand binding, [3H]-rauwolscine, rat cerebral cortices; settings: for Ki: rat cerebral cortices, [3H]-rauwolscine; for alpha-2-Selectivity Ki alpha-1/Ki alpha-2: ratio Ki alpha-1/Ki alpha-2
Experimental: as §1

| SMILES | Ki (alpha-1-receptor) [µM] | Ki (alpha-2-receptor) [µM] | alpha-2-Selectivity Ki alpha-1/Ki alpha-2 (alpha-2-receptor) |
| --- | --- | --- | --- |
| COc1ccc2c(c1OC)OCCC2CN(C)CCc1cccc(F)c1 (stereo not drawn) [Example 25, 4-(N-Methylamino)methyl-N-(2-(m-fluorophenyl)ethyl))-7,8-dimethoxy chroman hydrochloride] | 0.55 | 0.003 | 183 |
| CCN(CCc1cccs1)CC1CCOc2c1ccc(OC)c2C (stereo not drawn) [Example 28, 4-((N-Ethylamino)methyl-N-(20(2-thienyl)ethyl)-7-methoxy-8-methylchroman hydrochloride] | 1 | 0.034 | 29 |
| CCN(CCc1cccc(Cl)c1)CC1CCOc2cc(OC)ccc21 (stereo not drawn) [Example 6, 4-((N-Ethylamino)methyl-N-(2-(m-chlorophenyl)ethyl))-7-methoxy chroman hydrochloride] | 1.14 | 0.034 | 33 |
| COc1ccc2c(c1OC)SCCC2CN(C)CCc1cccs1 (stereo not drawn) [Example 13, 4-((N-Methylamino)methyl-N-(2-(2-thienyl)ethyl))-7,8-dimethoxy thiochroman hydrochloride] | 0.096 | 0.003 | 32 |
| COc1ccc2c(c1OC)OCCC2CN(C)CCc1cccs1 (stereo not drawn) [Example 26, 4-((N-Methylamino)methyl-N-(2-(2-thienyl)ethyl))-7,8-dimethoxy chroman hydrochloride] | 10 | 0.0058 | 1724 |
| COc1ccc2c(c1)OCCC2CN(C)CCc1cccs1 (stereo not drawn) [Example 7, 4-((N-Methylamino)methyl-N-(2-(2-thienyl)ethyl))-7-methoxy chroman hydrochloride] | 0.59 | 0.01 | 59 |
| COc1ccc2c(c1)OCCC2CN(C)CCc1cccc(Cl)c1 (stereo not drawn) [Example 4, 4-((N-Methylamino)methyl-N-(2-(m-chlorophenyl)ethyl))-7-methoxy chroman hydrochloride] | 0.26 | 0.024 | 11 |
